Legend:
NLRP3 = molecular target: T1, NLRP3 (Homo sapiens, UniProt Q96P20); assay: PBMC assay: IL-1β levels in supernatant of LPS-stimulated human PBMCs (MSD); format: cell-based; conditions: 30 min compound pre-incubation, 100 ng/ml LPS for 6 hrs, IL-1β in supernatant, read-out: IL-1B IC50
T1 construct: human peripheral blood mononuclear cells (PBMCs) were isolated from blood; endogenous in cells; host or cells: primary human PBMCs from healthy donors
Experimental: The activity of a compound according to the present invention can be assessed by in vitro methods.
Peripheral venous blood was collected from healthy individuals and human peripheral blood mononuclear cells (PBMCs) were isolated from blood by Ficoll-Histopaque (Sigma-Aldrich, A0561) density gradient centrifugation. After isolation, PBMCs were stored in liquid nitrogen for later use. Upon thawing, PBMC cell viability was determined in growth medium (RPMI media supplemented with 10% fetal bovine serum, 1% Pen-Strep and 1% L-glutamine). […] PBMCs were added at a density of 7.5×10^4 cells per well and incubated for 30 min in a 5% CO2 incubator at 37° C. LPS stimulation was performed by addition of 100 ng/ml LPS (final concentration, Invivogen, tlrl-smlps) for 6 hrs followed by collection of cellular supernatant and the analysis of IL-1β […] and TNF cytokines levels […] via MSD technology according to manufacturers' guidelines (MSD, K15A0H).

TNF = assay: PBMC assay: TNF cytokine levels in supernatant of LPS-stimulated human PBMCs (MSD); format: cell-based; conditions: 30 min compound pre-incubation, 100 ng/ml LPS for 6 hrs
Experimental: Peripheral venous blood was collected from healthy individuals and human peripheral blood mononuclear cells (PBMCs) were isolated from blood by Ficoll-Histopaque (Sigma-Aldrich, A0561) density gradient centrifugation. After isolation, PBMCs were stored in liquid nitrogen for later use. Upon thawing, PBMC cell viability was determined in growth medium (RPMI media supplemented with 10% fetal bovine serum, 1% Pen-Strep and 1% L-glutamine). Compounds were spotted in a 1:3 serial dilution in DMSO and diluted to the final concentration in 30 μl medium in 96 well plates (Falcon, 353072). PBMCs were added at a density of 7.5×10^4 cells per well and incubated for 30 min in a 5% CO2 incubator at 37° C. LPS stimulation was performed by addition of 100 ng/ml LPS (final concentration, Invivogen, tlrl-smlps) for 6 hrs followed by collection of cellular supernatant and the analysis of IL-1β […] and TNF cytokines levels […] via MSD technology according to manufacturers' guidelines (MSD, K15A0H).
The IC50 values (for IL-1β) and EC50 values (TNF) were obtained on compounds of the invention/examples, and are depicted in the following table: […]

T1 sequence (Q96P20 whole entry): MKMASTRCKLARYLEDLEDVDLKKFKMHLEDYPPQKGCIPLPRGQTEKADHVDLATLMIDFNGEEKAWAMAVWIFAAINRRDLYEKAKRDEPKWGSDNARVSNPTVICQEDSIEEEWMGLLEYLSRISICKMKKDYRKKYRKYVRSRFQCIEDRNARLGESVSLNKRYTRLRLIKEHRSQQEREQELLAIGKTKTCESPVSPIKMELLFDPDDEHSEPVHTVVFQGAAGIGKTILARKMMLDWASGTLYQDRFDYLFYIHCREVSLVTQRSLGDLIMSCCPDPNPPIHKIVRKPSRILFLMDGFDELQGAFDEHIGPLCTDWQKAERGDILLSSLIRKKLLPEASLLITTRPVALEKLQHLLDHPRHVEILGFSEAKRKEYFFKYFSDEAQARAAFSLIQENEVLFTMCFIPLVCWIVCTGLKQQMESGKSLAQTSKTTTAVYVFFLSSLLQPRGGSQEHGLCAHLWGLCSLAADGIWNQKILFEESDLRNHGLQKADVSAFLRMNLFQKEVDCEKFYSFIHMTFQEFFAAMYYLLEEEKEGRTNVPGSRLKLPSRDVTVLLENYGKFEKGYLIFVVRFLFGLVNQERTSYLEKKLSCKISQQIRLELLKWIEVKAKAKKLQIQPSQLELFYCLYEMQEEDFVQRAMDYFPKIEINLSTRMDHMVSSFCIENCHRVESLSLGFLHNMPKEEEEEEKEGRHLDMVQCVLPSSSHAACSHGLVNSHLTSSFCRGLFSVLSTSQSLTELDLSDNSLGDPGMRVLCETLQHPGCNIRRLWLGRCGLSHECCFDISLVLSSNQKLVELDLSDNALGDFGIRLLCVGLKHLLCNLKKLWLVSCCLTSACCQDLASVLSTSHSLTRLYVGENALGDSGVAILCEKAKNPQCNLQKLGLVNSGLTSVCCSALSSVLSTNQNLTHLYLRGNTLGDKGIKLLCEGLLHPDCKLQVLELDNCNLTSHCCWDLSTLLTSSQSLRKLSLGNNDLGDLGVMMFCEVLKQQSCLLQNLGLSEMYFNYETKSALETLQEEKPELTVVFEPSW

Structure (SMILES) | IC50 (NLRP3) | EC50 (TNF; Homo sapiens, PBMC) | melting point | EC50 (TNF)
Cc1nnc2n1C[C@H](NC(=O)Cn1nc(C(C)C)c3nc(C4CC4)sc3c1=O)CC2 (single isomer, unassigned) [F-32] | 6600 nM | > 20000 nM | – | –
Cc1nnc2n1C[C@@H](NC(=O)Cn1nc(C(C)C)c3nc(C4CC4)sc3c1=O)CC2 (single isomer, unassigned) [F-33] | 300 nM | > 20000 nM | – | –
CC(C)c1nn(CC(=O)Nc2ccncn2)c(=O)c2sc(C3CC3)nc12 [F-1, 2-(2-cyclopropyl-4-isopropyl-7-oxo-thiazolo[4,5-d]pyridazin-6-yl)-N-pyrimidin-4-yl-acetamide] | 105 nM | 19700 nM | – | –
CC(C)c1nc2c(C(C)C)nn(CC(=O)Nc3ccncn3)c(=O)c2s1 [F-2] | 105 nM | 5590 nM | – | –
CC(C)c1nc2c(C(C)C)nn(CC(=O)Nc3ccnnc3)c(=O)c2s1 [F-3] | 181 nM | 7180 nM | – | –
CC(C)c1nc2c(C(C)C)nn(CC(=O)Nc3ccc4nncn4c3)c(=O)c2s1 [F-4] | 50 nM | 11500 nM | – | –
CC(C)c1nc2c(C(C)C)nn(CC(=O)N[C@H]3C[C@@](C)(O)C3)c(=O)c2s1 [F-5] | 156 nM | > 20000 nM | – | –
CC(C)c1nc2c(N(C)C)nn(CC(=O)N[C@H]3C[C@@](C)(O)C3)c(=O)c2s1 [F-6] | 258 nM | > 20000 nM | – | –
CC(C)c1nc2c(N(C)C)nn(CC(=O)Nc3ccc4nncn4c3)c(=O)c2s1 [F-7] | 169 nM | > 20000 nM | – | –
CCc1nc2c(C(C)C)nn(CC(=O)Nc3ccncn3)c(=O)c2s1 [F-8, 2-(2-ethyl-4-isopropyl-7-oxo-thiazolo[4,5-d]pyridazin-6-yl)-N-pyrimidin-4-yl-acetamide] | 181 nM | 9200 nM | 186 °C | –
CCc1nc2c(C(C)C)nn(CC(=O)Nc3ccc4nncn4c3)c(=O)c2s1 [F-9] | 95 nM | 18000 nM | 284.6 °C | –
CCc1nc2c(C(C)C)nn(CC(=O)Nc3ccnnc3)c(=O)c2s1 [F-10] | 274 nM | 18600 nM | 186.5 °C | –
CCc1nc2c(C(C)C)nn(CC(=O)N[C@H]3C[C@@](C)(O)C3)c(=O)c2s1 [F-11] | 351 nM | 19400 nM | 159.2 °C | –
CC(C)c1nn(CC(=O)Nc2ccc3nncn3c2)c(=O)c2sc(C3CC3)nc12 [F-12] | 23 nM | 4990 nM | – | –
CC(C)c1nn(CC(=O)Nc2ccnnc2)c(=O)c2sc(C3CC3)nc12 [F-13] | 100 nM | 6590 nM | 195.2 °C | –
CC(C)c1nn(CC(=O)N[C@H]2C[C@@](C)(O)C2)c(=O)c2sc(C3CC3)nc12 [F-14] | 55 nM | 18200 nM | 190.5 °C | –
CC(C)c1nn(CC(=O)Nc2ccc3c(c2)[nH]c(=O)n3C)c(=O)c2sc(C3CC3)nc12 [F-15] | 26 nM | 7900 nM | – | –
CC(C)c1nn(CC(=O)Nc2ccc(=O)n(C)n2)c(=O)c2sc(C3CC3)nc12 [F-16] | 81 nM | – | 233.3 °C | –
CC(C)c1nn(CC(=O)Nc2ccn3cnnc3c2)c(=O)c2sc(C3CC3)nc12 [F-17] | – | 12500 nM | 206 °C | –
CCNc1nc2c(C(C)C)nn(CC(=O)N[C@H]3C[C@@](C)(O)C3)c(=O)c2s1 [F-18] | 128 nM | > 20000 nM | 216.6 °C | –
CC(C)c1nn(CC(=O)Nc2ccc3nncn3c2)c(=O)c2sc(C3CC3(F)F)nc12 (centres unmarked) [F-20] | 100 nM | > 20000 nM | – | –

Structure (SMILES) | IC50 (NLRP3) | EC50 (TNF; Homo sapiens, PBMC) | melting point | EC50 (TNF)
CC(C)c1nn(CC(=O)N[C@H]2C[C@@](C)(O)C2)c(=O)c2sc(C(F)(F)F)nc12 [F-21] | 469 nM | > 20000 nM | 181.4 °C | –
CC(C)c1nn(CC(=O)Nc2ccc3nncn3c2)c(=O)c2sc(C(F)(F)F)nc12 [F-22] | 332 nM | > 20000 nM | 261.8 °C | –
CC(C)c1nn(CC(=O)Nc2ccc3nncn3c2)c(=O)c2sc(C(C)(F)F)nc12 [F-23] | 89 nM | > 20000 nM | – | –
CC(C)c1nn(CC(=O)Nc2ccc3nncn3c2)c(=O)c2sc(C3COC3)nc12 [F-24] | 567 nM | > 20000 nM | 151.3 °C | –
Cn1nc(NC(=O)Cn2nc(C3CC3)c3nc(C4CC4)sc3c2=O)ccc1=O [F-25] | 715 nM | ~12600 nM | 219.9 °C | –
O=C(Cn1nc(C2CC2)c2nc(C3CC3)sc2c1=O)Nc1ccc2nncn2c1 [F-26] | 126 nM | 10800 nM | 285 °C | –
C[C@]1(O)C[C@@H](NC(=O)Cn2nc(C3CC3)c3nc(C4CC4)sc3c2=O)C1 [F-27] | 780 nM | > 20000 nM | 198.2 °C | –
CC(C)c1nn(CC(=O)Nc2ccc3cncn3c2)c(=O)c2sc(C3CC3)nc12 [F-28] | 97 nM | 6360 nM | 195.8 °C | –
CC(C)c1nn(CC(=O)Nc2ccn3ccnc3c2)c(=O)c2sc(C3CC3)nc12 [F-29] | 155 nM | 12300 nM | 215.5 °C | –
Cc1nc2ccc(NC(=O)Cn3nc(C(C)C)c4nc(C5CC5)sc4c3=O)cn2n1 [F-30] | 237 nM | 19600 nM | 204.6 °C | –
Cc1nnc2n1CC(NC(=O)Cn1nc(C(C)C)c3nc(C4CC4)sc3c1=O)CC2 (centres unmarked) [F-31] | 407 nM | > 20000 nM | – | –
CC(C)c1nn(CC(=O)Nc2ccn3ccnc3n2)c(=O)c2sc(C3CC3)nc12 [F-34] | 692 nM | 8260 nM | 258 °C | –
CC(C)c1nn(CC(=O)Nc2ccc3nccn3c2)c(=O)c2sc(C3CC3)nc12 [F-36] | 72 nM | 15900 nM | – | –
CC(C)c1nn(CC(=O)Nc2ccn3cnnc3c2)c(=O)c2sc(C3CC3)nc12 [F-40] | – | – | 299.1 °C | > 20000 nM
CC(C)c1nn(CC(=O)Nc2ccc3nc(C#N)cn3c2)c(=O)c2sc(C3CC3)nc12 [F-42] | 188 nM | > 20000 nM | – | –
CC(C)c1nn(CC(=O)Nc2cnc3ccnn3c2)c(=O)c2sc(C3CC3)nc12 [F-44] | 2310 nM | > 20000 nM | – | –
CC(C)c1nn(CC(=O)Nc2ccn3c(F)cnc3c2)c(=O)c2sc(C3CC3)nc12 [F-47] | 1240 nM | ~19600 nM | – | –
CC(C)c1nn(CC(=O)Nc2ccc3nnc(Cl)n3n2)c(=O)c2sc(C3CC3)nc12 [F-51] | 286 nM | > 20000 nM | – | –
CC(C)c1nn(CC(=O)Nc2ccc3nncn3n2)c(=O)c2sc(C(C)(F)F)nc12 [F-52, N-([1,2,4]triazolo[4,3-b]pyridazin-6-yl)-2-(2-(1,1-difluoroethyl)-4-isopropyl-7-oxothiazolo[4,5-d]pyridazin-6(7H)-yl)acetamide] | 56 nM | 18600 nM | – | –
CC(C)c1nn(CC(=O)Nc2ccc3nc(C(F)(F)F)cn3c2)c(=O)c2sc(C3CC3)nc12 [F-58] | 224 nM | 19800 nM | – | –
CC(C)c1nn(CC(=O)Nc2cc(C#N)c3nncn3c2)c(=O)c2sc(C3CC3)nc12 [F-60, N-(8-cyano-[1,2,4]triazolo[4,3-a]pyridin-6-yl)-2-(2-cyclopropyl-4-isopropyl-7-oxothiazolo[4,5-d]pyridazin-6(7H)-yl)acetamide] | 316 nM | > 20000 nM | – | –

— patent publication US20240043450A1, “NEW COMPOUND” (JANSSEN PHARMACEUTICA NV, priority 2020, published 2024)
